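Each compound was tested at five concentrations against cells in 96-well plates for 48 hours. Definition used: TGI = concentration required for complete inhibition of growth.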
Legend:
Test in all cases: NCI tumour cell line growth inhibition, 48 h
786-0 renal = test system: 786-0 renal
A498 renal = test system: A498 renal
A549 NSCLC = test system: A549 NSCLC
ACHN renal = test system: ACHN renal
CAKI-1 renal = test system: CAKI-1 renal
CCRF-CEM leukemia = test system: CCRF-CEM leukemia
COLO 205 colon = test system: COLO 205 colon
DMS 273 small cell lung = test system: DMS 273 small cell lung
EKVX NSCLC = test system: EKVX NSCLC
HCC-2998 colon = test system: HCC-2998 colon
HCT-116 colon = test system: HCT-116 colon
HCT-15 colon = test system: HCT-15 colon
HL-60(TB) leukemia = test system: HL-60(TB) leukemia
HOP-62 NSCLC = test system: HOP-62 NSCLC
HOP-92 NSCLC = test system: HOP-92 NSCLC
HT29 colon = test system: HT29 colon
IGROV1 ovarian = test system: IGROV1 ovarian
K-562 leukemia = test system: K-562 leukemia
KM12 colon = test system: KM12 colon
KM20L2 colon = test system: KM20L2 colon
LXFL 529 NSCLC = test system: LXFL 529 NSCLC
M14 melanoma = test system: M14 melanoma
M19-MEL melanoma = test system: M19-MEL melanoma
MALME-3M melanoma = test system: MALME-3M melanoma
MOLT-4 leukemia = test system: MOLT-4 leukemia
NCI-H226 lung = test system: NCI-H226 lung
NCI-H23 lung = test system: NCI-H23 lung
NCI-H460 lung = test system: NCI-H460 lung
NCI-H522 lung = test system: NCI-H522 lung
OVCAR-3 ovarian = test system: OVCAR-3 ovarian
OVCAR-4 ovarian = test system: OVCAR-4 ovarian
OVCAR-5 ovarian = test system: OVCAR-5 ovarian
OVCAR-8 ovarian = test system: OVCAR-8 ovarian
RXF-631 renal = test system: RXF-631 renal
SF-268 CNS = test system: SF-268 CNS
SF-295 CNS = test system: SF-295 CNS
SF-539 CNS = test system: SF-539 CNS
SK-MEL-28 melanoma = test system: SK-MEL-28 melanoma
SK-MEL-5 melanoma = test system: SK-MEL-5 melanoma
SK-OV-3 ovarian = test system: SK-OV-3 ovarian
SN12C renal = test system: SN12C renal
SNB-19 CNS = test system: SNB-19 CNS
SNB-75 CNS = test system: SNB-75 CNS
SNB-78 CNS = test system: SNB-78 CNS
SR leukemia = test system: SR leukemia
SW-620 colon = test system: SW-620 colon
TK-10 renal = test system: TK-10 renal
U251 CNS = test system: U251 CNS
UACC-257 melanoma = test system: UACC-257 melanoma
UACC-62 melanoma = test system: UACC-62 melanoma
UO-31 renal = test system: UO-31 renal
XF 498 CNS = test system: XF 498 CNS
DLD-1 colon = test system: DLD-1 colon
HOP-18 NSCLC = test system: HOP-18 NSCLC
LOX IMVI melanoma = test system: LOX IMVI melanoma
RPMI-8226 leukemia = test system: RPMI-8226 leukemia
RXF 393 renal = test system: RXF 393 renal
SK-MEL-2 melanoma = test system: SK-MEL-2 melanoma

With `CCCCCCCCCCCCCCCCCCCCCCC(=O)N[C@H]1CCc2cc(OC)c(OC)c(OC)c2-c2ccc(SC)c(=O)cc21` the TGI (786-0 renal) was greater than 100 µM, the TGI (A498 renal) was 40.7 µM and the TGI (A549 NSCLC) was greater than 100 µM. It also gave a TGI (ACHN renal) greater than 100 µM, a TGI (CAKI-1 renal) greater than 100 µM and a TGI (CCRF-CEM leukemia) greater than 100 µM. The TGI (COLO 205 colon) was 31.9 µM, the TGI (DMS 273 small cell lung) was greater than 100 µM and the TGI (EKVX NSCLC) was greater than 100 µM. The TGI (HCC-2998 colon) was 65.9 µM, the TGI (HCT-116 colon) was 69.3 µM and the TGI (HCT-15 colon) was 71 µM. For the same molecule, the TGI (HL-60(TB) leukemia) was 48.9 µM, the TGI (HOP-62 NSCLC) was greater than 100 µM and the TGI (HOP-92 NSCLC) was greater than 100 µM. It also gave a TGI (HT29 colon) of 99 µM, a TGI (IGROV1 ovarian) greater than 100 µM and a TGI (K-562 leukemia) greater than 100 µM. For the same molecule, the TGI (KM12 colon) was greater than 100 µM, the TGI (KM20L2 colon) was 37.1 µM and the TGI (LXFL 529 NSCLC) was greater than 100 µM. For the same molecule, the TGI (M14 melanoma) was 90.4 µM, the TGI (M19-MEL melanoma) was greater than 100 µM and the TGI (MALME-3M melanoma) was greater than 100 µM. For the same molecule, the TGI (MOLT-4 leukemia) was greater than 100 µM, the TGI (NCI-H226 lung) was 8.23 µM and the TGI (NCI-H23 lung) was 62.2 µM. For the same molecule, the TGI (NCI-H460 lung) was 83 µM, the TGI (NCI-H522 lung) was 33.1 µM and the TGI (OVCAR-3 ovarian) was 60.4 µM. For the same molecule, the TGI (OVCAR-4 ovarian) was greater than 100 µM, the TGI (OVCAR-5 ovarian) was greater than 100 µM and the TGI (OVCAR-8 ovarian) was 85.6 µM. It also gave a TGI (RXF-631 renal) of 51.4 µM, a TGI (SF-268 CNS) greater than 100 µM and a TGI (SF-295 CNS) greater than 100 µM. The TGI (SF-539 CNS) was 41.3 µM, the TGI (SK-MEL-28 melanoma) was greater than 100 µM and the TGI (SK-MEL-5 melanoma) was greater than 100 µM. For the same molecule, the TGI (SK-OV-3 ovarian) was 53.6 µM, the TGI (SN12C renal) was greater than 100 µM and the TGI (SNB-19 CNS) was greater than 100 µM. It also gave a TGI (SNB-75 CNS) of 58.2 µM, a TGI (SNB-78 CNS) greater than 100 µM and a TGI (SR leukemia) of 81.9 µM. The TGI (SW-620 colon) was greater than 100 µM, the TGI (TK-10 renal) was greater than 100 µM and the TGI (U251 CNS) was 53.2 µM. It also gave a TGI (UACC-257 melanoma) greater than 100 µM, a TGI (UACC-62 melanoma) greater than 100 µM and a TGI (UO-31 renal) greater than 100 µM. It also gave a TGI (XF 498 CNS) of 61.3 µM.
`CS(=O)(=O)Sc1ccc(Cl)cc1` showed a TGI (786-0 renal) of 19.2 µM, a TGI (A498 renal) of 7.48 µM and a TGI (A549 NSCLC) of 17.5 µM. It also gave a TGI (CAKI-1 renal) of 24.4 µM, a TGI (CCRF-CEM leukemia) of 8.89 µM and a TGI (COLO 205 colon) of 12.7 µM. The TGI (DLD-1 colon) was 27.2 µM, the TGI (DMS 273 small cell lung) was 17.4 µM and the TGI (EKVX NSCLC) was 18.3 µM. It also gave a TGI (HCC-2998 colon) of 24 µM, a TGI (HCT-116 colon) of 18.6 µM and a TGI (HCT-15 colon) of 22.2 µM. The TGI (HL-60(TB) leukemia) was 17.5 µM, the TGI (HOP-18 NSCLC) was 55.4 µM and the TGI (HOP-62 NSCLC) was 5.29 µM. The TGI (HOP-92 NSCLC) was 20 µM, the TGI (HT29 colon) was 22.6 µM and the TGI (IGROV1 ovarian) was 8 µM. It also gave a TGI (K-562 leukemia) of 42.6 µM, a TGI (KM12 colon) of 19.7 µM and a TGI (KM20L2 colon) of 24.3 µM. The TGI (LOX IMVI melanoma) was 11.5 µM, the TGI (LXFL 529 NSCLC) was 23.3 µM and the TGI (M14 melanoma) was 25.8 µM. It also gave a TGI (M19-MEL melanoma) of 21.2 µM, a TGI (MALME-3M melanoma) of 26.6 µM and a TGI (MOLT-4 leukemia) of 21.7 µM. For the same molecule, the TGI (NCI-H226 lung) was 20.6 µM, the TGI (NCI-H23 lung) was 27.7 µM and the TGI (NCI-H460 lung) was 27.9 µM. It also gave a TGI (NCI-H522 lung) of 9.47 µM, a TGI (OVCAR-3 ovarian) of 19.3 µM and a TGI (OVCAR-4 ovarian) of 29.7 µM. The TGI (OVCAR-5 ovarian) was 31.5 µM, the TGI (OVCAR-8 ovarian) was 21.8 µM and the TGI (RPMI-8226 leukemia) was 41.9 µM. The TGI (RXF 393 renal) was 20.8 µM, the TGI (RXF-631 renal) was 20 µM and the TGI (SF-268 CNS) was 12.7 µM. It also gave a TGI (SF-295 CNS) of 9.21 µM, a TGI (SF-539 CNS) of 10.9 µM and a TGI (SK-MEL-2 melanoma) of 25.6 µM. For the same molecule, the TGI (SK-MEL-28 melanoma) was 23.9 µM, the TGI (SK-MEL-5 melanoma) was 20.2 µM and the TGI (SK-OV-3 ovarian) was 43.9 µM. The TGI (SN12C renal) was 16 µM, the TGI (SNB-19 CNS) was 25.1 µM and the TGI (SNB-75 CNS) was 12.6 µM. For the same molecule, the TGI (SNB-78 CNS) was 15.6 µM, the TGI (SR leukemia) was 15.7 µM and the TGI (SW-620 colon) was 25.3 µM. It also gave a TGI (TK-10 renal) of 31.2 µM, a TGI (U251 CNS) of 11.5 µM and a TGI (UACC-257 melanoma) of 20.6 µM. For the same molecule, the TGI (UO-31 renal) was 13.3 µM and the TGI (XF 498 CNS) was 22.7 µM.

Source: PubChem BioAssay (NCI)
